Source: patent US20030162762A1, “Novel cephalosporin compounds and process for preparing the same” (priority 2000, published 2003)
≈ marks a conversion by molar mass, not a printed value.

Legend:
Assay in all cases: Minimum Inhibitory Concentration (MIC), agar dilution, standard strains
S. aureus 77 = type: cell-based, Staphylococcus aureus; conditions: Table 1, Mueller-Hinton agar, 37° C., 20 hours; for MIC: Staphylococcus aureus, 77, read-out: Minimum Inhibitory Concentration, S. aureus 77
Method: (§1) The effectiveness of the compound according to the present invention was determined by obtaining Minimum Inhibitory Concentration (MIC) of the compounds prepared by the above examples (Compounds I-1 to I-41) and vancomycin, which is the known compound having a potent activity against gram-positive strains, as the control drug against the standard strains. Specifically, Minimum Inhibitory Concentration was obtained by diluting the test compound according to a double dilution method, dispersing them in Mueller-Hinton agar medium, inoculating each of the test strain having 10^7 cfu (colony forming unit) per ml in an amount of 2 μl to the medium and then incubating them at 37° C. for 20 hours. From the result of Minimum Inhibitory Concentration test, it can be seen that the compound according to the present invention has a good activity against major pathogenic microorganisms, which cause hospital infection, including MRSA strains.

S. aureus 241 = type: cell-based, Staphylococcus aureus; conditions: Table 1, Mueller-Hinton agar, 37° C., 20 hours; for MIC: Staphylococcus aureus, 241, read-out: Minimum Inhibitory Concentration, S. aureus 241
Method: as §1

S. epidermidis R005 = type: cell-based; conditions: Table 1, Mueller-Hinton agar, 37° C., 20 hours; for MIC: Staphylococcus epidermidis, R005, read-out: Minimum Inhibitory Concentration, S. epidermidis R005
Method: as §1

E. faecalis L239 = type: cell-based; conditions: Table 1, Mueller-Hinton agar, 37° C., 20 hours; for MIC: Enterococcus faecalis, L239, read-out: Minimum Inhibitory Concentration, E. faecalis L239
Method: as §1

[1] = tested on: Staphylococcus aureus giorgio; type: cell-based; conditions: Table 1, Mueller-Hinton agar, 37° C., 20 hours; for MIC: Staphylococcus aureus, read-out: Minimum Inhibitory Concentration, Staphylococcus aureus giorgio
Method: as §1

Row | Compound | Minimum Inhibitory Concentration, S. aureus 77 (S. aureus 77) [µg/mL] | Minimum Inhibitory Concentration, S. aureus 241 (S. aureus 241) [µg/mL] | Minimum Inhibitory Concentration, S. epidermidis R005 (S. epidermidis R005) [µg/mL] | Minimum Inhibitory Concentration, E. faecalis L239 (E. faecalis L239) [µg/mL] | Minimum Inhibitory Concentration, Staphylococcus aureus giorgio [1] [µg/mL] | MIC (S. aureus 77) [µg/mL] | MIC (S. aureus 241) [µg/mL] | MIC (S. epidermidis R005) [µg/mL] | MIC (E. faecalis L239) [µg/mL] | MIC [1] [µg/mL]
1 | 4-amino-1-{(E)-3-[(6R,7R)-2-carboxy-7-({2-[(2,5-dichlorophenyl)sulfanyl]acetyl}amino)-8-oxo-5-thia-1-azabicyclo[4.2.0]oct-2-en-3-yl]-2-propenyl}-2-methyl pyrimidin-1-ium [Compound I-39] | 0.25 | 2 | 0.063 | 0.5 | <0.008 |  |  |  |  | 
2 | Cc1nc(N)cc[n+]1C/C=C/C1=C(C(=O)O)N2C(=O)[C@@H](NC(=O)CSc3cc(Cl)ccc3Cl)[C@H]2SC1 [Compound I-33] | 0.26 | 2 | 0.063 | 0.5 | <0.008 |  |  |  |  | 
3 | CNc1cc(N)nc(C)[n+]1C/C=C/C1=C(C(=O)O)N2C(=O)[C@@H](NC(=O)CSc3cc(Cl)ccc3Cl)[C@H]2SC1 [Compound I-38, 4-amino-1-{(E)-3-[(6R,7R)-2-carboxy-7-({2-[(2,5-dichlorophenyl)sulfanyl]acetyl}amino)-8-oxo-5-thia-1-azabicyclo[4.2.0]oct-2-en-3-yl]-2-propenyl}-2-methyl-6-(methylamino)pyrimidin-1-ium] | 1 | 8 | 0.5 | 1 | 0.031 |  |  |  |  | 
4 | C[n+]1c(N)cc(SC/C=C/C2=C(C(=O)O)N3C(=O)[C@@H](NC(=O)CSc4cc(Cl)ccc4Cl)[C@H]3SC2)nc1N [Compound I-22, (6R,7R)-2,6-diamino-4-({(E)-3-[2-carboxy-7-({2-[(2,5-dichlorophenyl)sulfanyl]acetyl}amino)-8-oxo-5-thia-1-azabicyclo[4.2.0]oct-2-en-3-yl]-2-propenyl}sulfanyl)-1-methylpyrimidin-1-ium] | 0.063 | 1 | 0.063 | 0.25 | <0.008 |  |  |  |  | 
5 | CNCc1c(N)nc(SC/C=C/C2=C(C(=O)O)N3C(=O)[C@@H](NC(=O)CSc4cc(Cl)ccc4Cl)[C@H]3SC2)[n+](C)c1N [Compound I-23, (6R,7R)-4,6-diamino-2-({(E)-3-[2-carboxy-7-({2-[(2,5-dichlorophenyl)sulfanyl]acetyl}amino)-8-oxo-5-thia-1-azabicyclo[4.2.0]oct-2-en-3-yl]-2-propenyl}sulfanyl)-1-methyl-5-[(methylamino)methyl]pyrimidin-1-ium] | 0.25 | 4 | 0.25 | 1 | 0.016 |  |  |  |  | 
6 | Cc1c(N)nc(SC/C=C/C2=C(C(=O)O)N3C(=O)[C@@H](NC(=O)CSc4cc(Cl)ccc4Cl)[C@H]3SC2)nc1N [Compound I-26, (6R,7R)-3-{(E)-3-[(4,6-diamino-5-methyl-2-pyrimidinyl)sulfanyl]-1-propenyl}-7-({2-[(2,5-dichlorophenyl)sulfanyl]acetyl}amino)-8-oxo-5-thia-1-azabicyclo[4.2.0]oct-2-ene-2-carboxylic acid] |  |  |  |  |  | 1 (≈ 1.63 µM) | 16 (≈ 26.1 µM) | 2 (≈ 3.26 µM) | 2 (≈ 3.26 µM) | 0.13 (≈ 0.212 µM)
7 | Nc1cc(SC/C=C/C2=C(C(=O)O)N3C(=O)[C@@H](NC(=O)CSc4cc(Cl)ccc4Cl)[C@H]3SC2)nc(N)n1 [Compound I-3, (6R,7R)-3-{(E)-3-[(2,6-diamino-4-pyrimidinyl)sulfanyl]-1-propenyl}-7-({2-[(2,5-dichlorophenyl)sulfanyl]acetyl}amino)-8-oxo-5-thia-1-azabicyclo[4.2.0]oct-2-ene-2-carboxylic acid] |  |  |  |  |  | 0.13 (≈ 0.217 µM) | 4 (≈ 6.67 µM) | 0.13 (≈ 0.217 µM) | 0.5 (≈ 0.834 µM) | < 0.008
8 | Nc1cc(N)nc(SC/C=C/C2=C(C(=O)O)N3C(=O)[C@@H](NC(=O)CSc4cc(Cl)ccc4Cl)[C@H]3SC2)n1 [Compound I-24, (6R,7R)-3-{(E)-3-[(4,6-diamino-2-pyrimidinyl)sulfanyl]-1-propenyl}-7-({2-[(2,5-dichlorophenyl)sulfanyl]acetyl}amino)-8-oxo-5-thia-1-azabicyclo[4.2.0]oct-2-ene-2-carboxylic acid] |  |  |  |  |  | 0.25 (≈ 0.417 µM) | 4 (≈ 6.67 µM) | 0.13 (≈ 0.217 µM) | 0.5 (≈ 0.834 µM) | 0.016 (≈ 0.0267 µM)
9 | CSc1nc(C)cc(SC/C=C/C2=C(C(=O)O)N3C(=O)[C@@H](NC(=O)CSc4cc(Cl)ccc4Cl)[C@H]3SC2)n1 [Compound I-28, (6R,7R)-7-({2-[(2,5-dichlorophenyl)sulfanyl]acetyl}amino)-3-((E)-3-{[6-methyl-2-(methylsulfanyl)-4-pyrimidinyl]sulfanyl}-1propenyl)-8-oxo-5-thia-1-azabicyclo [4.2.0]oct-2-ene-2-carboxylic acid] |  |  |  |  |  | 0.25 (≈ 0.397 µM) | 32 (≈ 50.8 µM) | 0.25 (≈ 0.397 µM) | 0.5 (≈ 0.794 µM) | 0.016 (≈ 0.0254 µM)
10 | Nc1ncnc(SC/C=C/C2=C(C(=O)O)N3C(=O)[C@@H](NC(=O)CSc4cc(Cl)ccc4Cl)[C@H]3SC2)c1N [Compound I-25, (6R,7R)-3-{(E)-3-[(5,6-diamino-4-pyrimidinyl)sulfanyl]-1-propenyl}-7-({2-[(2,5-dichlorophenyl)sulfanyl]acetyl}amino)-8-oxo-5-thia-1-azabicyclo[4.2.0]oct-2-ene-2-carboxylic acid] |  |  |  |  |  | 0.5 (≈ 0.834 µM) | 16 (≈ 26.7 µM) | 1 (≈ 1.67 µM) | 2 (≈ 3.34 µM) | 0.063 (≈ 0.105 µM)
11 | CNc1cc(N)nc(SC/C=C/C2=C(C(=O)O)N3C(=O)[C@@H](NC(=O)CSc4cc(Cl)ccc4Cl)[C@H]3SC2)n1 [Compound I-30, (6R,7R)-3-((E)-3-{[4-amino-6-(methylamino)-2-pyrimidinyl]sulfanyl}-1propenyl)-7-({2-[(2,5-dichlorophenyl)sulfanyl]acetyl}amino)-8-oxo-5-thia-1-azabicyclo [4.2.0]oct-2-ene-2-carboxylic acid] |  |  |  |  |  | 0.5 (≈ 0.815 µM) | 16 (≈ 26.1 µM) | 0.5 (≈ 0.815 µM) | 2 (≈ 3.26 µM) | 0.016 (≈ 0.0261 µM)
12 | Nc1nc2cc(N)[n+](C/C=C/C3=C(C(=O)O)N4C(=O)[C@@H](NC(=O)CSc5cc(Cl)ccc5Cl)[C@H]4SC3)cn2n1 [Compound I-32] | 0.5 | 4 | 0.25 | 1 | 0.016 |  |  |  |  | 
13 | CC[n+]1c(N)cc(N)nc1SC/C=C/C1=C(C(=O)O)N2C(=O)[C@@H](NC(=O)CSc3cc(Cl)ccc3Cl)[C@H]2SC1 [Compound I-29, (6R,7R)-4,6-diamino-2-({(E)-3-[2-carboxy-7-({2-[(2,5-dichlorophenyl)sulfanyl]acetyl}amino)-8-oxo-5-thia-1-azabicyclo[4.2.0]oct-2-en-3-yl]-2-propenyl}sulfanyl)-1-ethylpyrimidin-1-ium] | 0.063 | 1 | 0.031 | 0.13 | <0.008 |  |  |  |  | 
14 | 4,6-diamino-1-{(E)-3-[(6R,7R)-2-carboxy-7-({2-[(2,5-dichlorophenyl)sulfanyl]acetyl}amino)-8-oxo-5-thia-1-azabicyclo[4.2.0]oct-2-en-3-yl]-2-propenyl}-5-methylpyrimidin-1-ium [Compound I-40] | 1 | 8 | 0.25 | 2 | 0.016 |  |  |  |  | 
15 | Nc1cc[n+](N)c(SC/C=C/C2=C(C(=O)O)N3C(=O)[C@@H](NC(=O)CSc4cc(Cl)ccc4Cl)[C@H]3SC2)n1 [Compound I-4, 1,4-diamino-2-({(E)-3-[(6R,7R)-2-carboxy-7-({2-[(2,5-dichlorophenyl)sulfanyl]acetyl}amino)-8-oxo-5-thia-1-azabicyclo[4.2.0]oct-2-en-3-yl]-2-propenyl}sulfanyl) pyrimidin-1-ium] | 0.13 | 1 | 0.13 | 0.5 | <0.008 |  |  |  |  | 
